Consider one compound from patent US7314878B2, “Piperazine benzothiazoles as agents for the treatment of cerebral ischemic disorders or CNS disorders” (Laboratories Serono SA, priority 2002, dated 2008).

Each structure is given as a SMILES string. Where two headings read alike, the source gives them in different places.

A short description of data set [1]: Assessment of the BBB passage: brain and plasma sampling. The format is in vivo, Sprague Dawley rats. As to conditions: rat, i.v. 10 mg/kg; for concentration at 0.25 h / concentration at 0.5 h / concentration at 1 h: pooled n = 2. The text has this: c) Assessment of the BBB Passage: Brain and Plasma Sampling
The compounds of the present invention are useful in the treatment and/or prophylaxis of cerebral ischemic disorders or CNS disorders. Specifically, the compounds of the present invention show a good capacity to cross the blood-brain barrier (EBB). The BBB passing capacity of the compounds according to formulae I or II may be assessed using the below protocols. The objective of this assay is to quantify the amount of the test compounds according to formulae I or II in the brain of rats following i.v. administration.
Six male Crl:CD(SD)Br Sprague Dawley rats (about 8 weeks old and having a weight of about 300 g) were divided into the 3 following groups:
2 animals for i.v. administration (10 mg/kg of test compound of formula I in 0.9% NaCl for injection). The test compound is administered by single dose (dose regimen). The sampling is performed at 0.25 h after sacrifice.
2 animals for i.v. administration (10 mg/kg of test compound of formula I in 0.9% NaCl for injection). The test compound is administered by single dose (dose regimen). The sampling is performed at 0.5 h after sacrifice.
2 animals for i.v. administration (10 mg/kg of test compound of formula I in 0.9% NaCl for injection). The test compound is administered by single dose (dose regimen). The sampling is performed at 1 h after sacrifice.
At each scheduled killing time, the animals of the corresponding group are deeply anaesthetised with diethyl ether. The blood for the corresponding blood samples is collected into heparinised tubes and centrifuged to remove the blood cells thus providing plasma. Plasma samples obtained at each sampling time (i.e. at t=0.25 h, 0.5 h, 1 h) from the rats of each group after administration of the test compound of formula (I) are pooled in order to obtain 1 pooled sample per sampling time per group. Rats are then sacrificed by exsanguination.
For the-brain sampling, the whole brain (cerebrum and cerebellum) of the sacrificed animals is removed. Brain from two animals per sampling time (i.e. at t=0.25 h, 0.5 h, 1 h after administration) are pooled in order to obtain one pooled sample per sampling time. Each pooled sample is homogenized in a solvent mixture (acetonitrile/methanol/dimethyl-sulfoxide, 50:48:2 by volume) centrifuged and the supernatant analyzed for the test compound.
Concentrations in plasma samples and brain homogenates are quantified according to an analytical HPLC-MS/MS method, properly developed for the compound.
The test compound used in this assay is the one set out in Example 1 (i.e. 1,3-benzothiazol-2-yl[2-({4-[(4-methylpiperazin-1-yl)methyl]-benzyl}oxy)pyrimidin-4-yl]acetonitrile.

Data set [2] concerns neuronal death in CA1/CA2 subfields of the hippocampus. The data set is described as follows: Global ischemia in gerbils (bilateral carotid occlusion). The data set is classed as in vivo. As to conditions: 40 mg per kg ip, 15 min, 24 h and 48 h after reperfusion; gerbil. The text has this: b) Global Ischemia in Gerbils
The ability of the JNK inhibitors described in formula I to protect cell death during a stroke event may be assessed using the following protocol:
The gerbil bilateral carotid occlusion is a well-described animal model of acute ischemic stroke and involves relatively easy surgical techniques.
The neuronal degeneration in the hippocampus develops over several days and is often referred as “delayed neuronal death”. In addition, the neurodegeneration observed histologically is obvious and easily quantified (11). Furthermore, the histopathology seen in the gerbil is similar to that observed in the hippocampal CA1 region of the human brain following a cardiac arrest. Behavior observations, such as memory tests, could even be performed in the case of gerbils. This kind of tests for appreciation of the degree of recovery is not easily manageable in other models such as in rat whose learning abilities are much poorer (12).
The neuroprotective effect according to formula I to protect may be assessed using-the gerbil global ischemia model and such a protocol: […]

On to `CN1CCN(Cc2ccc(COc3nccc(C(C#N)c4nc5ccccc5s4)n3)cc2)CC1` (centres unmarked) [Example 1, 1,3-benzothiazol-2-yl[2-({4-[(4-methylpiperazin-1-yl)methyl]-benzyl}-oxy)pyrimidin-4yl]acetonitrile], for which the concentration at 0.25 h worked out at 919 ng/g in data set [1] (male, Crl:CD(SD)Br Sprague Dawley, brain, iv, 0.25 h, read-out: Brain concentration) and 2840 ng/mL in data set [1] (male, Crl:CD(SD)Br Sprague Dawley, plasma, iv, 0.25 h, read-out: Plasma concentration). The concentration at 0.5 h is 657 ng/g in data set [1] (male, Crl:CD(SD)Br Sprague Dawley, brain, iv, 0.5 h, read-out: Brain concentration) and 2160 ng/mL in data set [1] (male, Crl:CD(SD)Br Sprague Dawley, plasma, iv, 0.5 h, read-out: Plasma concentration). For the same compound, the concentration at 1 h in data set [1] (male, Crl:CD(SD)Br Sprague Dawley, brain, iv, 1 h, read-out: Brain concentration) was 679 ng/g; in data set [1] (male, Crl:CD(SD)Br Sprague Dawley, plasma, iv, 1 h, read-out: Plasma concentration) it was 1980 ng/mL. In addition, the Kp at 0.25 h in data set [1] (male, Crl:CD(SD)Br Sprague Dawley, brain/plasma, iv, 0.25 h, read-out: Brain/Plasma ratio) came out at 0.32. Besides, the Kp at 0.5 h in data set [1] (male, Crl:CD(SD)Br Sprague Dawley, brain/plasma, iv, 0.5 h, read-out: Brain/Plasma ratio) worked out at 0.3. For the same compound, the Kp at 1 h in data set [1] (male, Crl:CD(SD)Br Sprague Dawley, brain/plasma, iv, 1 h, read-out: Brain/Plasma ratio) was 0.34. The “passage into the brain” value in data set [1] (0.25-1 h) is “considerable and sustained passage of the test compound into the brain”. Also, the “inhibition of neuronal death” value in data set [2] is on record as “about 60%”.
